Molecules are shown by their SMILES. “And” between values parts separate entries of the source, which are not always exact repeats. Equal values may be shown once.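 These data come from cells grown in 96-well plates and exposed to compound for 48 hours at five concentrations. Abbreviation: GI50, concentration required for 50% inhibition of growth. At the TGI there is no net growth.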 Bounds are passed on as bounds.

Test systems include CCRF-CEM leukemia; HT29 colon; MALME-3M melanoma; MCF7 breast; NCI-H522 lung; NCI/ADR-RES ovarian; SF-268 CNS; SK-MEL-28 melanoma; SK-OV-3 ovarian; UACC-62 melanoma.
Common to all, as to assay: NCI anticancer screen, dose series, 48 h

For the molecule `NC(CSC(c1ccccc1)(c1ccccc1)c1ccccc1)C(=O)NCC(=O)O` (configuration not stated), the GI50 was 3.68 µM in the test with CCRF-CEM leukemia; 22 µM in the test with HT29 colon; 5.3 µM in the test on MALME-3M melanoma; 3.87 µM in the test with MCF7 breast; 2.39 µM in the test on NCI-H522 lung; 26.5 µM in the test on NCI/ADR-RES ovarian. In addition, the GI50 in the test on SF-268 CNS was 5.38 µM; in the test with SK-MEL-28 melanoma, 8.19 µM; in the test on SK-OV-3 ovarian, 4.33 µM; with UACC-62 melanoma, 7.25 µM. Also, the TGI with CCRF-CEM leukemia was above 100 µM; in the test with HT29 colon, 97.6 µM; in the test with MALME-3M melanoma it was above 100 µM; with MCF7 breast, above 100 µM; in the test on NCI-H522 lung it was 7.13 µM; in the test on NCI/ADR-RES ovarian, above 100 µM. The TGI in the test with SF-268 CNS is above 100 µM; in the test on SK-MEL-28 melanoma it was above 100 µM; in the test on SK-OV-3 ovarian, 43.7 µM; with UACC-62 melanoma it was above 100 µM.

`Cc1cc(N(CC(C)Br)CC(C)Br)ccc1N=Nc1ccccc1C(=O)O` (configuration not stated): the TGI in the test on CCRF-CEM leukemia is above 94.1 µM; in the test on HT29 colon, 14.2 µM; with MALME-3M melanoma, 18.6 µM; in the test on MCF7 breast it was 7.67 µM; in the test on NCI-H522 lung, 9.02 µM; with NCI/ADR-RES ovarian it was above 100 µM. Moreover, the TGI in the test on SF-268 CNS was above 38.8 µM; in the test with SK-MEL-28 melanoma it was 5.43 µM; in the test on SK-OV-3 ovarian, 39.7 µM; with UACC-62 melanoma, 3.4 µM.

For `CCCCCCCCn1ccc2cc(NC(=O)Cn3cc(CN4CCCCCC4)nn3)ccc21`, the GI50 in the test with CCRF-CEM leukemia was 2.25 µM; in the test on HT29 colon, 1.73 µM; with MALME-3M melanoma, 1.67 µM; in the test on MCF7 breast, 1.83 µM; in the test with NCI-H522 lung, 1.85 µM; with NCI/ADR-RES ovarian it was 1.79 µM. Further, the GI50 is 1.8 µM with SF-268 CNS, 1.82 µM with SK-MEL-28 melanoma, 1.75 µM in the test with SK-OV-3 ovarian and 1.93 µM with UACC-62 melanoma. In addition, the TGI amounted to 7.41 µM with CCRF-CEM leukemia; 3.46 µM in the test on HT29 colon; 3.2 µM with MALME-3M melanoma; 3.63 µM in the test with MCF7 breast; 3.59 µM in the test on NCI-H522 lung; 3.56 µM in the test on NCI/ADR-RES ovarian. Further, the TGI in the test with SF-268 CNS was 3.37 µM; in the test with SK-MEL-28 melanoma it was 3.3 µM; in the test on SK-OV-3 ovarian it was 3.33 µM; with UACC-62 melanoma it was 3.45 µM.

As for `CCCCCCCCCCCCCCCCCCOC[C@H](COP(=O)(O)O[C@H]1[C@H](O)[C@@H](O)[C@H](O)C[C@H]1O)OC`, the TGI was 12.7 µM and 46 µM in the test with CCRF-CEM leukemia; > 100 µM and 26.2 µM with HT29 colon; > 100 µM and 33.9 µM in the test with MALME-3M melanoma; > 100 µM and 32.2 µM with MCF7 breast; > 100 µM and 25.4 µM in the test with NCI-H522 lung; > 100 µM and 33.5 µM with NCI/ADR-RES ovarian. For the same molecule, the TGI with SF-268 CNS is > 100 µM and 29.7 µM; in the test with SK-MEL-28 melanoma, > 100 µM and 33.8 µM; with SK-OV-3 ovarian, > 100 µM and 34 µM; with UACC-62 melanoma, > 100 µM and 30.1 µM. In addition, the GI50 was 58.7 µM and 13.1 µM in the test on HT29 colon; > 100 µM and 18.3 µM with MALME-3M melanoma; > 100 µM and 17.3 µM in the test with MCF7 breast; 36.5 µM and 11.4 µM with NCI-H522 lung; > 100 µM and 18.3 µM in the test with NCI/ADR-RES ovarian; > 100 µM and 15 µM with SF-268 CNS. The GI50 is > 100 µM and 17.4 µM in the test with SK-OV-3 ovarian; > 100 µM and 16.4 µM in the test with UACC-62 melanoma.

Turning to `C=C1c2c(C)nn(-c3ccc(C#CCOC4OC(CO)C(O)C(O)C4O)cc3)c2N(C)C23C[C@H]1C1(C)c4c(C)nn(-c5ccc(C#CCOC6OC(CO)C(O)C(O)C6O)cc5)c4N(C)C(C)(C[C@H]12)C3` (some centres not stated), the GI50 was 1.04 µM in the test with CCRF-CEM leukemia; 1.63 µM with HT29 colon; 1.87 µM in the test with MALME-3M melanoma; 1.38 µM with MCF7 breast; 1.67 µM in the test with NCI-H522 lung; 5.43 µM in the test with NCI/ADR-RES ovarian. The GI50 is 1.75 µM in the test on SF-268 CNS, 1.9 µM in the test with SK-MEL-28 melanoma, 1.72 µM with SK-OV-3 ovarian and 1.22 µM in the test on UACC-62 melanoma. Also, the TGI with CCRF-CEM leukemia was determined as 5.03 µM; with HT29 colon, 4.21 µM; with MALME-3M melanoma it was 3.66 µM; in the test with MCF7 breast, 3.2 µM; in the test with NCI-H522 lung, 3.26 µM; with NCI/ADR-RES ovarian, 47 µM. In addition, the TGI is 3.57 µM in the test with SF-268 CNS, 3.52 µM in the test with SK-MEL-28 melanoma, 3.11 µM in the test on SK-OV-3 ovarian and 2.86 µM in the test on UACC-62 melanoma.

For `O=C(O)c1ccc(CN2CCC(CN[C@@H]3C[C@H]3c3ccccc3)CC2)cc1`, the GI50 with CCRF-CEM leukemia, in the test with HT29 colon, in the test on MALME-3M melanoma, in the test with MCF7 breast, in the test on NCI-H522 lung and in the test on NCI/ADR-RES ovarian was above 100 µM in each case. In addition, the GI50 in the test on SF-268 CNS, with SK-MEL-28 melanoma, with SK-OV-3 ovarian and in the test with UACC-62 melanoma was above 100 µM each time. Also, the TGI in the test with CCRF-CEM leukemia, with HT29 colon, with MALME-3M melanoma, in the test with MCF7 breast, in the test with NCI-H522 lung and in the test with NCI/ADR-RES ovarian was above 100 µM in each case. Besides, the TGI in the test with SF-268 CNS, in the test on SK-MEL-28 melanoma, with SK-OV-3 ovarian and in the test with UACC-62 melanoma was above 100 µM each time.

As to `Nc1ncnc2c1ncn2C1C=C(CO)C(O)C1O` (configuration not stated), the TGI was 14 µM in the test on CCRF-CEM leukemia; above 100 µM in the test with HT29 colon; above 100 µM with MALME-3M melanoma; above 100 µM with MCF7 breast; 35.6 µM in the test with NCI-H522 lung; 74.8 µM with NCI/ADR-RES ovarian. Besides, the TGI with SF-268 CNS was above 100 µM; with SK-MEL-28 melanoma, above 100 µM; in the test on SK-OV-3 ovarian, 44.2 µM; with UACC-62 melanoma, above 57.5 µM.

Turning to `COc1ccc(C(C#N)NC23CC4CC(CC(C4)C2)C3)cc1` (configuration not stated), the TGI in the test on CCRF-CEM leukemia, in the test on HT29 colon, in the test with MALME-3M melanoma, in the test with MCF7 breast, in the test on NCI-H522 lung and in the test on NCI/ADR-RES ovarian was above 100 µM in each case. For the same molecule, the TGI in the test on SF-268 CNS, with SK-MEL-28 melanoma, in the test on SK-OV-3 ovarian and with UACC-62 melanoma was above 100 µM each time.

With `Cc1ccc(C)c(NC(=O)CC2Sc3ccccc3NC2=O)c1` (configuration not stated), the TGI in the test with CCRF-CEM leukemia was above 100 µM; with HT29 colon, above 100 µM; with MALME-3M melanoma, 48.2 µM and > 100 µM; with MCF7 breast, above 100 µM; in the test on NCI-H522 lung it was 60.6 µM and > 93.8 µM; in the test with NCI/ADR-RES ovarian it was above 74.3 µM. For the same molecule, the TGI with SF-268 CNS was 26.1 µM and 74.2 µM; in the test on SK-MEL-28 melanoma it was 54.7 µM and > 100 µM; in the test on SK-OV-3 ovarian, 38.3 µM and 48.3 µM; with UACC-62 melanoma it was above 100 µM. In addition, the GI50 is 31.4 µM and > 100 µM in the test on HT29 colon; 27.8 µM and 64.8 µM with MALME-3M melanoma; 21.7 µM and 45.6 µM with NCI-H522 lung; 34.9 µM and > 100 µM in the test on SK-MEL-28 melanoma.

For the molecule `C=C(C)C1CC2(C)C(C)CC(O)CC2C(OC(=O)C=C(C)C)C1O` (configuration not stated), the TGI in the test with CCRF-CEM leukemia was 84.7 µM; with HT29 colon it was 69.8 µM; in the test on MALME-3M melanoma, above 100 µM; in the test on MCF7 breast, 86 µM; with NCI-H522 lung, above 100 µM; in the test on NCI/ADR-RES ovarian it was above 100 µM. Also, the TGI with SF-268 CNS, in the test on SK-MEL-28 melanoma, with SK-OV-3 ovarian and with UACC-62 melanoma was above 100 µM throughout.

Regarding `COc1ccc2c(c1)C(=O)/C(=C/c1cccc(OCC(=O)c3ccccc3)c1)O2`, the GI50 in the test on CCRF-CEM leukemia was 0.81 µM; with HT29 colon, 3.1 µM; in the test on MALME-3M melanoma it was 1.95 µM; in the test with MCF7 breast, 4.2 µM; in the test on NCI-H522 lung, 1.62 µM; with NCI/ADR-RES ovarian, 8.9 µM. The GI50 in the test with SF-268 CNS was 4.25 µM; with SK-MEL-28 melanoma it was 4.76 µM; with SK-OV-3 ovarian, 15.8 µM; with UACC-62 melanoma, 13.4 µM. Moreover, the TGI in the test with CCRF-CEM leukemia was 2.42 µM; in the test on HT29 colon, 7.56 µM; with MALME-3M melanoma it was 4.8 µM; in the test on MCF7 breast, 33.7 µM; in the test with NCI-H522 lung, 3.26 µM; with NCI/ADR-RES ovarian, 26.4 µM. Also, the TGI in the test with SF-268 CNS came out at 16.6 µM; in the test on SK-MEL-28 melanoma, 15.7 µM; in the test with SK-OV-3 ovarian, 29.2 µM; with UACC-62 melanoma it was 27 µM.

With `Cc1ccc(C2=C(c3ccc(C)cc3)C3(c4ccc(C)cc4)C4C(=O)OC(=O)C4C2(c2ccc(C)cc2)S3=O)cc1` (configuration not stated), the GI50 is 25.2 µM in the test on CCRF-CEM leukemia; 25.3 µM in the test on HT29 colon; 27.9 µM in the test with MALME-3M melanoma; 29.2 µM with MCF7 breast; 34 µM with NCI-H522 lung; 46.4 µM in the test with NCI/ADR-RES ovarian. For the same molecule, the GI50 in the test with SF-268 CNS was 38.5 µM; in the test on SK-MEL-28 melanoma it was 28.8 µM; in the test on SK-OV-3 ovarian, 26.8 µM; with UACC-62 melanoma, 3.57 µM. The TGI with CCRF-CEM leukemia is above 100 µM; with HT29 colon, above 100 µM; in the test with MALME-3M melanoma, 84 µM; in the test on MCF7 breast it was above 100 µM; with NCI-H522 lung, above 100 µM; in the test with NCI/ADR-RES ovarian, above 100 µM. Besides, the TGI in the test on SF-268 CNS is above 100 µM; in the test on SK-MEL-28 melanoma, 96.1 µM; in the test on SK-OV-3 ovarian it was 98.7 µM; in the test on UACC-62 melanoma it was 19.6 µM.

For `Nc1n[nH]c2cccc(C#Cc3cccc(NC(=O)c4cccc(C(F)(F)F)c4)c3)c12`, the GI50 is 2.69 µM in the test with CCRF-CEM leukemia; 2.98 µM in the test with HT29 colon; 0.446 µM in the test with MALME-3M melanoma; 3 µM with MCF7 breast; 4.42 µM in the test with NCI-H522 lung; 3.91 µM with NCI/ADR-RES ovarian. Also, the GI50 was 3.82 µM in the test on SF-268 CNS, 2.72 µM with SK-MEL-28 melanoma, 3.19 µM in the test on SK-OV-3 ovarian and 2.54 µM in the test on UACC-62 melanoma. Also, the TGI in the test with CCRF-CEM leukemia is 15.9 µM; in the test on HT29 colon, 12.8 µM; in the test on MALME-3M melanoma it was 10.9 µM; in the test on MCF7 breast it was 15.8 µM; in the test with NCI-H522 lung it was 18.1 µM; in the test on NCI/ADR-RES ovarian, 23.2 µM. The TGI with SF-268 CNS worked out at 16.3 µM; with SK-MEL-28 melanoma, 12.5 µM; with SK-OV-3 ovarian it was 10.2 µM; in the test on UACC-62 melanoma it was 11.4 µM.

The values are drawn from PubChem BioAssay (NCI).
